From patent publication US20190343908A1, “Therapeutic Combination for the Treatment of Cancer” (Nerium Biotechnology Inc., priority 2011, published 2019)

Legend:
[1] = test system: PC3 (human prostate cancer); assay: Sulforhodamine B viability assay, PC3; format: cell-based
Excerpt: (§1) Three different viability assays were chosen to complement each other and yielded results dependent on concentration and cell line: the Methyl Tetrazolium dye assay, the Sulforhodamine B fluorescent dye assay, and the Crystal Violet dye assay.
(§2) The Sulforhodamine B and Crystal Violet assays provide information about protein and were used to complement the Methyl-Tetrazolium dye assay. […] It is used for the quantification of cellular proteins of cultured cells. The assay using Crystal Violet, a dye that binds electrostatically to proteins and stains DNA, provides a reliable, simple assay for measuring viability of cells.
(§3) The Methyl Tetrazolium, Sulforhodamine B, and Crystal Violet assays were used to assess cell viabilities. The incubation times were 24 hours, 48 hours, and 72 hours. The Nerium oleander extract Anvirzel™ (a hot water extract of oleander obtained from Salud Integral, Honduras) was tested in concentrations ranging from 0.01 ng/mL to 10 ng/mL.
(§4) Cells were detached by trypsinization (Trypsin-0.25% EDTA, Invitrogen, 25200-072) during the logarithmic phase of culture growth and plated in 96-well plates (18.000 cells/well) (Corning, Costar 359) in a final volume of 200 μl of medium per well. […] The absorbance was measured after 24 hours, 48 hours, and 72 hours of incubation.
(§5) For the Sulforhodamine B assay, 96-well plates were fixed by 10% trichloroacetic acid (Fluka, 91228) and were incubated at 4° C. for 1 hour. Afterwards, plates were rinsed with water and cells were stained with 0.4% Sulforhodamine B (Sigma, 341738), dissolved in 1% acetic acid (Carlo Ebra, 401422) for 15 minutes at room temperature (RT). The unbound stain was washed twice with 1% acetic acid. Finally, 10 mM Tris Buffer pH 10.5 (Sigma, T6791) was added to dissolve the dye.
(§6) The optical density of each plate was measured on a μQuant spectrophotometer and the data were analyzed with Gen5 software (μQuant Biomolecular Spectrophotometer MQX200 and Gen5™ Microplate Data Collection & Analysis software, BioTek® Instruments. Inc, April 2008). Absorbance was measured at 570 nm for all assays and a second wavelength was measured in order to subtract noise. For the Methyl-Tetrazolium assay this second wavelength was 630 nm and for the Sulforhodamine B and Crystal Violet assays it was 690 nm.

HT55 (colorectal cancer) = assay: Sulforhodamine B viability assay, HT55; format: cell-based, human; design: key: absorbance (optical density) at 570 nm, second wavelength subtracted
Excerpt: as §1, §2, §3, §4, §5, §6

[2] = test system: MDA-MB 231 (human breast cancer); assay: Sulforhodamine B viability assay, MDA-MB 231; format: cell-based; details: for SRB 24 h / SRB 48 h / SRB 72 h: Run 3 average
Excerpt: as §1, §2, §3, §4, §5, §6

N.N.[Cl][Pt][Cl] [cisplatin]
SRB Average ([1]; PC3 Run 1, 24 h, 0.1 μg/ml CDDP): 2.058
SRB Average ([1]; PC3 Run 1, 24 h, 1 μg/ml CDDP): 1.352
SRB Average ([1]; PC3 Run 1, 24 h, 10 μg/ml CDDP): 1.604
SRB Average ([1]; PC3 Run 1, 24 h, 100 μg/ml CDDP): 1.605
SRB Average ([1]; PC3 Run 1, 48 h, 0.1 μg/ml CDDP): 2.343
SRB Average ([1]; PC3 Run 1, 48 h, 1 μg/ml CDDP): 1.677
SRB Average ([1]; PC3 Run 1, 48 h, 10 μg/ml CDDP): 2.159
SRB Average ([1]; PC3 Run 1, 48 h, 100 μg/ml CDDP): 1.851
SRB Average ([1]; PC3 Run 1, 72 h, 0.1 μg/ml CDDP): 2.256
SRB Average ([1]; PC3 Run 1, 72 h, 1 μg/ml CDDP): 2.227
SRB Average ([1]; PC3 Run 1, 72 h, 10 μg/ml CDDP): 2.554
SRB Average ([1]; PC3 Run 1, 72 h, 100 μg/ml CDDP): 1.543
SRB Average ([1]; PC3 Run 2, 24 h, 0.1 μg/ml CDDP): 1.578
SRB Average ([1]; PC3 Run 2, 24 h, 1 μg/ml CDDP): 1.469
SRB Average ([1]; PC3 Run 2, 24 h, 10 μg/ml CDDP): 1.403
SRB Average ([1]; PC3 Run 2, 24 h, 100 μg/ml CDDP): 1.5
SRB Average ([1]; PC3 Run 2, 48 h, 0.1 μg/ml CDDP): 2.279
SRB Average ([1]; PC3 Run 2, 48 h, 1 μg/ml CDDP): 2.066
SRB Average ([1]; PC3 Run 2, 48 h, 10 μg/ml CDDP): 2.144
SRB Average ([1]; PC3 Run 2, 48 h, 100 μg/ml CDDP): 1.77
SRB Average ([1]; PC3 Run 2, 72 h, 0.1 μg/ml CDDP): 2.069
SRB Average ([1]; PC3 Run 2, 72 h, 1 μg/ml CDDP): 1.64
SRB Average ([1]; PC3 Run 2, 72 h, 10 μg/ml CDDP): 1.63
SRB Average ([1]; PC3 Run 2, 72 h, 100 μg/ml CDDP): 1.271
SRB Average ([1]; PC3 Run 3, 24 h, 0.1 μg/ml CDDP): 1.595
SRB Average ([1]; PC3 Run 3, 24 h, 1 μg/ml CDDP): 1.326
SRB Average ([1]; PC3 Run 3, 24 h, 10 μg/ml CDDP): 1.24
SRB Average ([1]; PC3 Run 3, 24 h, 100 μg/ml CDDP): 1.125
SRB Average ([1]; PC3 Run 3, 48 h, 0.1 μg/ml CDDP): 1.52
SRB Average ([1]; PC3 Run 3, 48 h, 1 μg/ml CDDP): 1.1
SRB Average ([1]; PC3 Run 3, 48 h, 10 μg/ml CDDP): 1.474
SRB Average ([1]; PC3 Run 3, 48 h, 100 μg/ml CDDP): 1.153
SRB Average ([1]; PC3 Run 3, 72 h, 0.1 μg/ml CDDP): 1.643
SRB Average ([1]; PC3 Run 3, 72 h, 1 μg/ml CDDP): 1.069
SRB Average ([1]; PC3 Run 3, 72 h, 10 μg/ml CDDP): 1.122
SRB Average ([1]; PC3 Run 3, 72 h, 100 μg/ml CDDP): 0.839
SRB Average (HT55 (colorectal cancer); HT55, Run 1, 24 h, 0.1 μg/ml CDDP): 2.17
SRB Average (HT55 (colorectal cancer); HT55, Run 1, 24 h, 1 μg/ml CDDP): 2.229
SRB Average (HT55 (colorectal cancer); HT55, Run 1, 24 h, 10 μg/ml CDDP): 2.246
SRB Average (HT55 (colorectal cancer); HT55, Run 1, 24 h, 100 μg/ml CDDP): 2.052
SRB Average (HT55 (colorectal cancer); HT55, Run 1, 48 h, 0.1 μg/ml CDDP): 2.437
SRB Average (HT55 (colorectal cancer); HT55, Run 1, 48 h, 1 μg/ml CDDP): 2.238
SRB Average (HT55 (colorectal cancer); HT55, Run 1, 48 h, 10 μg/ml CDDP): 2
SRB Average (HT55 (colorectal cancer); HT55, Run 1, 48 h, 100 μg/ml CDDP): 2.009
SRB Average (HT55 (colorectal cancer); HT55, Run 1, 72 h, 0.1 μg/ml CDDP): 2.413
SRB Average (HT55 (colorectal cancer); HT55, Run 1, 72 h, 1 μg/ml CDDP): 2.434
SRB Average (HT55 (colorectal cancer); HT55, Run 1, 72 h, 10 μg/ml CDDP): 2.222
SRB Average (HT55 (colorectal cancer); HT55, Run 1, 72 h, 100 μg/ml CDDP): 1.875
SRB Average (HT55 (colorectal cancer); HT55 Run 2, 24 h, 0.1 μg/ml CDDP): 2.445
SRB Average (HT55 (colorectal cancer); HT55 Run 2, 24 h, 1 μg/ml CDDP): 2.327
SRB Average (HT55 (colorectal cancer); HT55 Run 2, 24 h, 10 μg/ml CDDP): 2.387
SRB Average (HT55 (colorectal cancer); HT55 Run 2, 24 h, 100 μg/ml CDDP): 2.766
SRB Average (HT55 (colorectal cancer); HT55 Run 2, 48 h, 0.1 μg/ml CDDP): 2.408
SRB Average (HT55 (colorectal cancer); HT55 Run 2, 48 h, 1 μg/ml CDDP): 2.098
SRB Average (HT55 (colorectal cancer); HT55 Run 2, 48 h, 10 μg/ml CDDP): 1.814
SRB Average (HT55 (colorectal cancer); HT55 Run 2, 48 h, 100 μg/ml CDDP): 1.508
SRB Average (HT55 (colorectal cancer); HT55 Run 2, 72 h, 0.1 μg/ml CDDP): 2.564
SRB Average (HT55 (colorectal cancer); HT55 Run 2, 72 h, 1 μg/ml CDDP): 1.804
SRB Average (HT55 (colorectal cancer); HT55 Run 2, 72 h, 10 μg/ml CDDP): 1.74
SRB Average (HT55 (colorectal cancer); HT55 Run 2, 72 h, 100 μg/ml CDDP): 2.019
SRB Average (HT55 (colorectal cancer); HT55 Run 3, 24 h, 0.1 μg/ml CDDP): 2.101
SRB Average (HT55 (colorectal cancer); HT55 Run 3, 24 h, 1 μg/ml CDDP): 1.801
SRB Average (HT55 (colorectal cancer); HT55 Run 3, 24 h, 10 μg/ml CDDP): 2.557
SRB Average (HT55 (colorectal cancer); HT55 Run 3, 24 h, 100 μg/ml CDDP): 2.038
SRB Average (HT55 (colorectal cancer); HT55 Run 3, 48 h, 0.1 μg/ml CDDP): 2.648
SRB Average (HT55 (colorectal cancer); HT55 Run 3, 48 h, 1 μg/ml CDDP): 2.071
SRB Average (HT55 (colorectal cancer); HT55 Run 3, 48 h, 10 μg/ml CDDP): 2.649
SRB Average (HT55 (colorectal cancer); HT55 Run 3, 48 h, 100 μg/ml CDDP): 1.727
SRB Average (HT55 (colorectal cancer); HT55 Run 3, 72 h, 0.1 μg/ml CDDP): 2.177
SRB Average (HT55 (colorectal cancer); HT55 Run 3, 72 h, 1 μg/ml CDDP): 1.424
SRB Average (HT55 (colorectal cancer); HT55 Run 3, 72 h, 10 μg/ml CDDP): 2.784
SRB Average (HT55 (colorectal cancer); HT55 Run 3, 72 h, 100 μg/ml CDDP): 1.831
SRB 24 h Average ([2]; Run 1, 0.1 μg/ml CDDP): 1.792
SRB 48 h Average ([2]; Run 1, 0.1 μg/ml CDDP): 2.678
SRB 72 h Average ([2]; Run 1, 0.1 μg/ml CDDP): 2.873
SRB 24 h Average ([2]; Run 1, 1 μg/ml CDDP): 1.395
SRB 48 h Average ([2]; Run 1, 1 μg/ml CDDP): 2.254
SRB 72 h Average ([2]; Run 1, 1 μg/ml CDDP): 2.928
SRB 24 h Average ([2]; Run 1, 10 μg/ml CDDP): 1.785
SRB 48 h Average ([2]; Run 1, 10 μg/ml CDDP): 2.489
SRB 72 h Average ([2]; Run 1, 10 μg/ml CDDP): 2.962
SRB 24 h Average ([2]; Run 1, 100 μg/ml CDDP): 1.752
SRB 48 h Average ([2]; Run 1, 100 μg/ml CDDP): 2.457
SRB 72 h Average ([2]; Run 1, 100 μg/ml CDDP): 2.852
SRB 24 h Average ([2]; Run 2, 0.1 μg/ml CDDP): 1.576
SRB 48 h Average ([2]; Run 2, 0.1 μg/ml CDDP): 1.83
SRB 72 h Average ([2]; Run 2, 0.1 μg/ml CDDP): 2.1
SRB 24 h Average ([2]; Run 2, 1 μg/ml CDDP): 1.27
SRB 48 h Average ([2]; Run 2, 1 μg/ml CDDP): 1.162
SRB 72 h Average ([2]; Run 2, 1 μg/ml CDDP): 0.883
SRB 24 h Average ([2]; Run 2, 10 μg/ml CDDP): 1.598
SRB 48 h Average ([2]; Run 2, 10 μg/ml CDDP): 1.867
SRB 72 h Average ([2]; Run 2, 10 μg/ml CDDP): 1.755
SRB 24 h Average ([2]; Run 2, 100 μg/ml CDDP): 1.509
SRB 48 h Average ([2]; Run 2, 100 μg/ml CDDP): 1.048
SRB 72 h Average ([2]; Run 2, 100 μg/ml CDDP): 1.004
SRB 24 h ([2]; 0.1 μg/ml CDDP): 2.643
SRB 48 h ([2]; 0.1 μg/ml CDDP): 2.742
SRB 72 h ([2]; 0.1 μg/ml CDDP): 2.87
SRB 24 h ([2]; 1 μg/ml CDDP): 1.382
SRB 48 h ([2]; 1 μg/ml CDDP): 1.537
SRB 72 h ([2]; 1 μg/ml CDDP): 2.07
SRB 24 h ([2]; 10 μg/ml CDDP): 2.134
SRB 48 h ([2]; 10 μg/ml CDDP): 2.364
SRB 72 h ([2]; 10 μg/ml CDDP): 2.593
SRB 24 h ([2]; 100 μg/ml CDDP): 1.141
SRB 48 h ([2]; 100 μg/ml CDDP): 1.464
SRB 72 h ([2]; 100 μg/ml CDDP): 1.493
